{
  "source": "paper PMC3929521",
  "about": "“Optimization (Central Composite Design) and Validation of HPLC Method for Investigation of Emtricitabine Loaded Poly(lactic-co-glycolic acid) Nanoparticles: In Vitro Drug Release and In Vivo Pharmacokinetic Studies” (The Scientific World Journal, 2014)",
  "key": {"in vivo": {"assay": "in vivo", "experimental": "The pharmacokinetic studies were carried out in healthy male Wistar rats (250–300 g). The animals were fasted overnight before dosing with free access to water. The animals were acclimatized to laboratory conditions over the week before experiments and fed with standard rat diet, under controlled conditions of a 12 : 12 h light : dark cycle, with a temperature of 22 ± 3°C and relative humidity of 50 ± 5% RH. The experimental protocol was approved by the Institutional Animal Ethical Committee (AACP/IAEC/Jun-2012-02).\nEighteen rats were randomly separated into three groups (six animals in each group).\nAt regular time intervals 0, 1, 2, 4, 6, 8, 12, and every 24 h, for 10 days, samples of blood were withdrawn (100 μL) from the retroorbital plexus by microcapillary technique under light ether anesthesia into heparinized microcentrifuge tubes (50 units heparin/mL of blood).\nThe supernatant was decanted into a China dish and evaporated to dryness at room temperature. This was further reconstituted with 100 μL of mobile phase and vortexed for 30 s and 20 μL was injected into an HPLC system. Emtricitabine was detected at a wavelength of 280 nm. The proficiency of nanoparticulate formulations was appraised by administering pure drug orally and measuring the blood levels at 0, 0.25, 0.5, 1.5, 2, 3, 4, 6, 8, 12 and 24 h."}, "[1]": {"details": "rat plasma, n = 6", "experimental": "Bench-top stability was investigated to ensure that emtricitabine was not degraded in plasma samples at room temperature for a time period to cover the sample preparation. It was measured by divulging the QC samples to ambient laboratory conditions for 10 h. Freeze-thaw stability was measured over three cycles. Because of the need for occasional delayed injection of extraction samples, the stability of reconstituted samples was assessed at ambient temperature for 24 h. The freezer storage stability of emtricitabine in rat plasma at −20°C was evaluated by assaying QC samples at the beginning and one week later. All stability QC samples were analyzed in six replicates."}, "[2]": {"details": "male Wistar rats, oral, 15 mg/kg/rat, n = 6, mean ± SD, listed as Free emtricitabine, 15 mg/kg"}, "[3]": {"details": "male, Wistar, rat, plasma, po, 15 mg/kg"}, "[4]": {"details": "Bench-top stability, ambient temperature (25°C) for 4 h, spiked 0.1 μg/mL"}, "[5]": {"details": "Bench-top stability, ambient temperature (25°C) for 4 h, spiked 0.8 μg/mL"}, "[6]": {"details": "Bench-top stability, ambient temperature (25°C) for 4 h, spiked 2.0 μg/mL"}, "[7]": {"details": "Freeze-thaw stability, after three freeze-thaw cycles, spiked 0.1 μg/mL"}, "[8]": {"details": "Freeze-thaw stability, after three freeze-thaw cycles, spiked 0.8 μg/mL"}, "[9]": {"details": "Freeze-thaw stability, after three freeze-thaw cycles, spiked 2.0 μg/mL"}, "[10]": {"details": "One-week stability, stored at −16°C, spiked 0.1 μg/mL"}, "[11]": {"details": "One-week stability, stored at −16°C, spiked 0.8 μg/mL"}, "[12]": {"details": "One-week stability, stored at −16°C, spiked 2.0 μg/mL"}},
  "note": "Where two headings read alike, the source gives them in different places.",
  "data": [
    {"compound": "Nc1nc(=O)n([C@@H]2CS[C@H](CO)O2)cc1F", "note": "[Emtricitabine, 5-fluoro-1-(2R, 5S)-[2-(hydroxymethyl)-1,3-oxathiolan-5-yl]cytosine]", "values": [
      {"measurement": "AUMC0–∞", "setting": "in vivo; male Wistar rats, oral, 15 mg/kg/rat, n = 6, mean ± SD", "result": "178.32 ± 15.095", "unit": "µg/mL∗h"},
      {"measurement": "AUC0–∞", "setting": "in vivo; [2]", "result": "14.835 ± 0.450", "unit": "µg/mL∗h"},
      {"measurement": "t max", "setting": "in vivo; [2]", "result": "2.0 ± 0.006", "unit": "h"},
      {"measurement": "Cmax", "setting": "in vivo; [3]", "result": "1700 ± 17", "unit": "ng/mL"},
      {"measurement": "MRT", "setting": "in vivo; [3]", "result": "12 ± 0.67", "unit": "h"},
      {"measurement": "half-life", "setting": "in vivo; [3]", "result": "9.37 ± 0.58", "unit": "h"},
      {"measurement": "k el", "setting": "in vivo; [3]", "result": "2.06e-05", "unit": "s⁻¹"},
      {"measurement": "AUC(0-inf)", "setting": "in vivo; male, Wistar, rat, plasma, po, 15 mg/kg, AUC0–∞, male Wistar rats, 15 mg/kg/rat, n = 6, mean ± SD", "result": 14800, "unit": "ng·h/mL"},
      {"measurement": "t max", "setting": "in vivo; male, Wistar, rat, plasma, po, 15 mg/kg, t max, male Wistar rats, 15 mg/kg/rat, n = 6, mean ± SD", "result": "≤ 2", "unit": "h"},
      {"measurement": "AUC(0-inf)", "setting": "in vivo; male, Wistar, rat, plasma, po, 15 mg/kg/rat, AUC0−∞ (Figure 6), Wistar rats, mean ± SEM", "result": "14800 ± 184", "unit": "ng·h/mL"},
      {"measurement": "Accuracy", "setting": "[1]; [4]", "result": 96.0, "unit": "%"},
      {"measurement": "Mean determined concentration", "setting": "[1]; [4]", "result": 0.096, "unit": "µg/mL"},
      {"measurement": "Accuracy", "setting": "[1]; [5]", "result": 97.87, "unit": "%"},
      {"measurement": "Mean determined concentration", "setting": "[1]; [5]", "result": 0.783, "unit": "µg/mL"},
      {"measurement": "Accuracy", "setting": "[1]; [6]", "result": 97.20, "unit": "%"},
      {"measurement": "Mean determined concentration", "setting": "[1]; [6]", "result": 1.944, "unit": "µg/mL"},
      {"measurement": "Accuracy", "setting": "[1]; [7]", "result": 99.00, "unit": "%"},
      {"measurement": "Mean determined concentration", "setting": "[1]; [7]", "result": 0.099, "unit": "µg/mL"},
      {"measurement": "Accuracy", "setting": "[1]; [8]", "result": 99.37, "unit": "%"},
      {"measurement": "Mean determined concentration", "setting": "[1]; [8]", "result": 0.795, "unit": "µg/mL"},
      {"measurement": "Accuracy", "setting": "[1]; [9]", "result": 99.75, "unit": "%"},
      {"measurement": "Mean determined concentration", "setting": "[1]; [9]", "result": 1.995, "unit": "µg/mL"},
      {"measurement": "Accuracy", "setting": "[1]; [10]", "result": 93.00, "unit": "%"},
      {"measurement": "Mean determined concentration", "setting": "[1]; [10]", "result": 0.093, "unit": "µg/mL"},
      {"measurement": "Accuracy", "setting": "[1]; [11]", "result": 93.25, "unit": "%"},
      {"measurement": "Mean determined concentration", "setting": "[1]; [11]", "result": 0.746, "unit": "µg/mL"},
      {"measurement": "Accuracy", "setting": "[1]; [12]", "result": 95.55, "unit": "%"},
      {"measurement": "Mean determined concentration", "setting": "[1]; [12]", "result": 1.911, "unit": "µg/mL"}
    ]}
  ]
}
